Results taken from patent US9108926B2, “Disubstituted 5-fluoro-pyrimidines” (Bayer Intellectual Property GmbH, priority 2011, dated 2015).
Like-named read-outs stand apart in the source and are kept apart here.

Assays:
[1] = test system: DU145 cells; assay: Proliferation assay, DU145; type: cell-based; conditions: Homo sapiens, DU-145, 96 h, read-out: Inhibition of DU145 cell proliferation IC50
Experimental: (§1) After 24 hours, the cells of one plate (zero-point plate) were stained with crystal violet (see below), while the medium of the other plates was replaced by fresh culture medium (200 μl), to which the test substances were added in various concentrations (0 μM, as well as in the range of 0.001-10 μM; the final concentration of the solvent dimethyl sulfoxide was 0.5%). The cells were incubated for 4 days in the presence of test substances. Cell proliferation was determined by staining the cells with crystal violet: the cells were fixed by adding 20 μl/measuring point of an 11% glutaric aldehyde solution for 15 minutes at room temperature. After three washing cycles of the fixed cells with water, the plates were dried at room temperature. The cells were stained by adding 100 μl/measuring point of a 0.1% crystal violet solution (pH 3.0). After three washing cycles of the stained cells with water, the plates were dried at room temperature. The dye was dissolved by adding 100 μl/measuring point of a 10% acetic acid solution. […] The change of cell number, in percent, was calculated by normalization of the measured values to the extinction values of the zero-point plate (=0%) and the extinction of the untreated (0 μm) cells (=100%).

[2] = test system: HeLa-MaTu-ADR cells; assay: Proliferation assay, HeLa-MaTu-ADR; type: cell-based; conditions: Homo sapiens, 96 h, read-out: Inhibition of HeLa-MaTu-ADR cell proliferation IC50
Experimental: as §1

[3] = test system: B16F10 cells; assay: Proliferation assay, B16F10; type: cell-based; conditions: Mus musculus, B16-F10, 96 h, read-out: Inhibition of B16F10 cell proliferation IC50
Experimental: as §1

[4] = biological target: T1, CDK9/CycT1 (Homo sapiens, UniProt P50750); assay: CDK9/CycT1 kinase assay (TR-FRET, Method 1a)
T1 sequence (P50750 whole entry): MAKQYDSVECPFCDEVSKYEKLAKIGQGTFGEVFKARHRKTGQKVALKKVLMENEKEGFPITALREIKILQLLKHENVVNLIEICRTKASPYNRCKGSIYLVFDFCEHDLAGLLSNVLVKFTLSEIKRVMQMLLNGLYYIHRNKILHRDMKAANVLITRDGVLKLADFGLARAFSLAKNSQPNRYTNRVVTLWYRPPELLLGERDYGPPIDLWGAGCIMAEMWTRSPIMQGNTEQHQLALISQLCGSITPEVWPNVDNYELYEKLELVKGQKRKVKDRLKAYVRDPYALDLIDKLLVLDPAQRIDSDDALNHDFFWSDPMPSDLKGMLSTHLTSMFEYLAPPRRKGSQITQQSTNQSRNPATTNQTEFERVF
T1 sequence (O60563 whole entry partner): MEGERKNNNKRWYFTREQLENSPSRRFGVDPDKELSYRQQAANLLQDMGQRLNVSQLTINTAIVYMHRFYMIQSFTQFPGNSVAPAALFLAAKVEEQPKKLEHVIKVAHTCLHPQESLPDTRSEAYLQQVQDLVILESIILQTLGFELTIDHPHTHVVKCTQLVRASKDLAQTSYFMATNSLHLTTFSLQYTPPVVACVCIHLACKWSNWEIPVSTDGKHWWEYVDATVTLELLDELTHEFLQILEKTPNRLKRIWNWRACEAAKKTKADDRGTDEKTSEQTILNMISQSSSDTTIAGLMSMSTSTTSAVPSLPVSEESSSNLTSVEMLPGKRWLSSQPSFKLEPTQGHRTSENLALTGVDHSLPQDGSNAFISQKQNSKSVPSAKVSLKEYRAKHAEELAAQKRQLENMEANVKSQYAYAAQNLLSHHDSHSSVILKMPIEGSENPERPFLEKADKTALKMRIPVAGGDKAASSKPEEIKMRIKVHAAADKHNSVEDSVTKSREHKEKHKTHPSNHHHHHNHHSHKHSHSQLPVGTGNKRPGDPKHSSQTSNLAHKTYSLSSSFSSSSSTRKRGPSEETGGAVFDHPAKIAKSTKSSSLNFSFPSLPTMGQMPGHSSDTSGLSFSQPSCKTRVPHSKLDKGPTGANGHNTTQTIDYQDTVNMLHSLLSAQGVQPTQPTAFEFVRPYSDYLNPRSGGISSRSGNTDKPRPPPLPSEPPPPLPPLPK
Excerpt: CDK9/CycT1-inhibitory activity of compounds of the present invention was quantified employing the CDK9/CycT1 TR-FRET assay as described in the following paragraphs:
Recombinant full-length His-tagged human CDK9 and CycT1, expressed in insect cells and purified by Ni-NTA affinity chromatography, were purchased from Invitrogen (Cat. No PV4131). As substrate for the kinase reaction biotinylated peptide biotin-Ttds-[sequence] (C-terminus in amid form) was used which can be purchased e.g. form the company JERINI Peptide Technologies (Berlin, Germany).
For the assay 50 nl of a 100 fold concentrated solution of the test compound in DMSO was pipetted into a black low volume 384 well microtiter plate (Greiner Bio-One, Frickenhausen, Germany), 2 μl of a solution of CDK9/CycT1 in aqueous assay buffer [50 mM Tris/HCl pH 8.0, 10 mM MgCl2, 1.0 mM dithiothreitol, 0.1 mM sodium ortho-vanadate, 0.01% (v/v) Nonidet-P40 (Sigma)] were added and the mixture was incubated for 15 min at 22° C. to allow pre-binding of the test compounds to the enzyme before the start of the kinase reaction. Then the kinase reaction was started by the addition of 3 μl of a solution of adenosine-tri-phosphate (ATP, 16.7 μM=>final conc. in the 5 μl assay volume is 10 μM) and substrate (1.67 μM=>final conc. in the 5 μl assay volume is 1 μM) in assay buffer and the resulting mixture was incubated for a reaction time of 25 min at 22° C. The concentration of CDK9/CycT1 was adjusted depending of the activity of the enzyme lot and was chosen appropriate to have the assay in the linear range, typical concentrations were in the range of 1 μg/mL. The reaction was stopped by the addition of 5 μl of a solution of TR-FRET detection reagents (0.2 μM streptavidine-XL665 [Cisbio Bioassays, Codolet, France] and 1 nM anti-RB(pSer807/pSer811)-antibody from BD Pharmingen [#558389] and 1.2 nM LANCE EU-W1024 labeled anti-mouse IgG antibody [Perkin-Elmer, product no. AD0077]) in an aqueous EDTA-solution (100 mM EDTA, 0.2% (w/v) bovine serum albumin in 100 mM HEPES/NaOH pH 7.0).
(§2) The resulting mixture was incubated 1 h at 22° C. to allow the formation of complex between the phosphorylated biotinylated peptide and the detection reagents. Subsequently the amount of phosphorylated substrate was evaluated by measurement of the resonance energy transfer from the Eu-chelate to the streptavidine-XL. Therefore, the fluorescence emissions at 620 nm and 665 nm after excitation at 350 nm was measured in a HTRF reader, e.g. a Rubystar (BMG Labtechnologies, Offenburg, Germany) or a Viewlux (Perkin-Elmer). The ratio of the emissions at 665 nm and at 622 nm was taken as the measure for the amount of phosphorylated substrate.

[5] = test system: HeLa cells; assay: Proliferation assay, HeLa; type: cell-based; conditions: Homo sapiens, 96 h, read-out: Inhibition of HeLa cell proliferation IC50
Experimental: as §1

[6] = test system: Caco-2 cells; assay: Proliferation assay, Caco-2; type: cell-based; conditions: Homo sapiens, read-out: Inhibition of Caco-2 cell proliferation IC50
Experimental: as §1

[7] = biological target: T1, CDK9/CycT1
Experimental: CDK9/CycT1 High ATP Kinase Assay
CDK9/CycT1-inhibitory activity of compounds of the present invention at a high ATP concentration after preincubation of enzyme and test compounds was quantified employing the CDK9/CycT1 TR-FRET assay as described in the following paragraphs.
Recombinant full-length His-tagged human CDK9 and CycT1, expressed in insect cells and purified by Ni-NTA affinity chromatography, were purchase from Invitrogen (Cat. No PV4131). As substrate for the kinase reaction biotinylated peptide biotin-Ttds-[sequence]
For the assay 50 nl of a 100 fold concentrated solution of the test compound in DMSO was pipetted into a black low volume 384 well microtiter plate (Greiner Bio-One, Frickenhausen, Germany), 2 μl of a solution of CDK9/CycT1 in aqueous assay buffer [50 mM Tris/HCl pH 8.0, 10 mM MgCl2, 1.0 mM dithiothreitol, 0.1 mM sodium ortho-vanadate, 0.01% (v/v) Nonidet-P40 (Sigma)] were added and the mixture was incubated for 15 min at 22° C. to allow pre-binding of the test compounds to the enzyme before the start of the kinase reaction. Then the kinase reaction was started by the addition of 3 μl of a solution of adenosine-tri-phosphate (ATP, 3.3 mM=>final conc. in the 5 μl assay volume is 2 mM) and substrate (1.67 μM=>final conc. in the 5 μl assay volume is 1 μM) in assay buffer and the resulting mixture was incubated for a reaction time of 25 min at 22° C. The concentration of CDK9/CycT1 was adjusted depending of the activity of the enzyme lot and was chosen appropriate to have the assay in the linear range, typical concentrations were in the range of 0.5 μg/mL. The reaction was stopped by the addition of 5 μl of a solution of TR-FRET detection reagents (0.2 μM streptavidine-XL665 [Cisbio Bioassays, Codolet, France] and 1 nM anti-RB(pSer807/pSer811)-antibody from BD Pharmingen [#558389] and 1.2 nM LANCE EU-W1024 labeled anti-mouse IgG antibody [Perkin-Elmer, product no. AD0077]) in an aqueous EDTA-solution (100 mM EDTA, 0.2% (w/v) bovine serum albumin in 100 mM HEPES/NaOH pH 7.0).
as §2

[8] = test system: NCI-H460 cells; assay: Proliferation assay, NCI-H460; type: cell-based; conditions: Homo sapiens, read-out: Inhibition of NCI-H460 cell proliferation IC50
Experimental: as §1

[9] = biological target: CDK2/CycE (Homo sapiens, UniProt P24941); assay: CDK2/CycE kinase assay (TR-FRET, Method 2)
Excerpt: CDK2/CycE-inhibitory activity of compounds of the present invention was quantified employing the CDK2/CycE TR-FRET assay as described in the following paragraphs:
Recombinant fusion proteins of GST and human CDK2 and of GST and human CycE, expressed in insect cells (Sf9) and purified by Glutathion-Sepharose affinity chromatography, were purchased from ProQinase GmbH (Freiburg, Germany). As substrate for the kinase reaction biotinylated peptide biotin-Ttds-[sequence] (C-terminus in amid form) was used which can be purchased e.g. form the company JERINI Peptide Technologies (Berlin, Germany).
For the assay 50 nl of a 100 fold concentrated solution of the test compound in DMSO was pipetted into a black low volume 384 well microtiter plate (Greiner Bio-One, Frickenhausen, Germany), 2 μl of a solution of CDK2/CycE in aqueous assay buffer [50 mM Tris/HCl pH 8.0, 10 mM MgCl2, 1.0 mM dithiothreitol, 0.1 mM sodium ortho-vanadate, 0.01% (v/v) Nonidet-P40 (Sigma)] were added and the mixture was incubated for 15 min at 22° C. to allow pre-binding of the test compounds to the enzyme before the start of the kinase reaction. Then the kinase reaction was started by the addition of 3 μl of a solution of adenosine-tri-phosphate (ATP, 16.7 μM=>final conc. in the 5 μl assay volume is 10 μM) and substrate (1.25 μM=>final conc. in the 5 μl assay volume is 0.75 μM) in assay buffer and the resulting mixture was incubated for a reaction time of 25 min at 22° C. The concentration of CDK2/CycE was adjusted depending of the activity of the enzyme lot and was chosen appropriate to have the assay in the linear range, typical concentrations were in the range of 130 ng/mL. The reaction was stopped by the addition of 5 μl of a solution of TR-FRET detection reagents (0.2 μM streptavidine-XL665 [Cisbio Bioassays, Codolet, France] and 1 nM anti-RB(pSer807/pSer811)-antibody from BD Pharmingen [#558389] and 1.2 nM LANCE EU-W1024 labeled anti-mouse IgG antibody [Perkin-Elmer, product no. AD0077]) in an aqueous EDTA-solution (100 mM EDTA, 0.2% (w/v) bovine serum albumin in 100 mM HEPES/NaOH pH 7.0).
The resulting mixture was incubated 1 h at 22° C. to allow the formation of complex between the phosphorylated biotinylated peptide and the detection reagents. Subsequently the amount of phosphorylated substrate was evaluated by measurement of the resonance energy transfer from the Eu-chelate to the streptavidine-XL. Therefore, the fluorescence emissions at 620 nm and 665 nm after excitation at 350 nm was measured in a TR-FRET reader, e.g. a Rubystar (BMG Labtechnologies, Offenburg, Germany) or a Viewlux (Perkin-Elmer). The ratio of the emissions at 665 nm and at 622 nm was taken as the measure for the amount of phosphorylated substrate.

[10] = Caco-2 permeation assay; type: in vitro ADME; conditions: human, pH 7.2, Caco-2, test compound 2 μM
Experimental: 4. Caco-2 Permeation Assay:
Caco-2 cells (purchased from DSMZ Braunschweig, Germany) were seeded at a density of 4.5×10^4 cells per well on 24 well insert plates, 0.4 μm pore size, and grown for 15 days in DMEM medium supplemented with 10% fetal bovine serum, 1% GlutaMAX (100×, GIBCO), 100 U/mL penicillin, 100 μg/mL streptomycin (GIBCO) and 1% non essential amino acids (100×). Cells were maintained at 37° C. in a humified 5% CO2 atmosphere. Medium was changed every 2-3 day. Before running the permeation assay, the culture medium was replaced by a FCS-free hepes-carbonate transport buffer (pH 7.2). For assessment of monolayer integrity the transepithelial electrical resistance (TEER) was measured. Test compounds were predissolved in DMSO and added either to the apical or basolateral compartment in final concentration of 2 μM in transport buffer. Before and after 2 h incubation at 37° C. samples were taken from both compartments. Analysis of compound content was done after precipitation with methanol by LC/MS/MS analysis. Permeability (Papp) was calculated in the apical to basolateral (A→B) and basolateral to apical (B→A) directions. […] The efflux ratio basolateral (B) to apical (A) was calculated by dividing the Papp B−A by the Papp A−B. In addition the compound recovery was calculated. The following reference compounds were used for the classification of the permeability class: Antipyrine, Pyrazosin, Verapamil, Fluvastatin, Cimetidine, Ranitidine, Atenolol, Sulfasalazine.

[11] = HeLa-MaTu-ADR, 4 days, crystal violet
[12] = 96 h, Caco-2, 4 days, crystal violet
[13] = 96 h, NCI-H460, 4 days, crystal violet

Compound: COc1cc(F)ccc1-c1nc(Nc2cccc(CS(=O)(=O)CCO)c2)ncc1F [Example 8, 2-[(3-{[5-Fluoro-4-(4-fluoro-2-methoxyphenyl)pyrimidin-2-yl]amino}benzyl)sulfonyl]ethanol]
- IC50 ([1]; DU145, 4 days, crystal violet): 640 nM
- IC50 [2, 11]: 380 nM
- IC50 ([3]; B16F10, 4 days, crystal violet): 950 nM
- IC50 [4]: 9 nM
- IC50 ([5]; 4 days, crystal violet): 1000 nM
- IC50 [6, 12]: 710 nM
- IC50 [7]: 103 nM
- IC50 [8, 13]: 710 nM
- IC50 [9]: 310 nM

Compound: O=S(=O)(Cc1cccc(Nc2ncc(F)c(-c3cccc4c3OCCC4)n2)c1)C1CC1 [Example 10, N-{3-[(Cyclopropylsulfonyl)methyl]phenyl}-4-(3,4-dihydro-2H-chromen-8-yl)-5-fluoropyrimidin-2-amine]
- IC50 ([5]; 4 days, crystal violet): 1100 nM
- IC50 [9]: 210 nM

Compound: CS(=O)(=O)Cc1cccc(Nc2ncc(F)c(-c3ccc(F)cc3OCc3ccccc3)n2)c1 [Example 2, 4-[2-(Benzyloxy)-4-fluorophenyl]-5-fluoro-N-{3-[(methylsulfonyl)methyl]phenyl}pyrimidin-2-amine]
- IC50 ([1]; DU145, 4 days, crystal violet): 410 nM
- IC50 [2, 11]: 300 nM
- IC50 ([3]; B16F10, 4 days, crystal violet): 820 nM
- IC50 [4]: 8 nM
- IC50 ([5]; 4 days, crystal violet): 350 nM
- IC50 [6, 12]: 490 nM
- IC50 [7]: 8 nM
- IC50 [8, 13]: 370 nM
- IC50 [9]: 840 nM

Compound: CC(C)S(=O)(=O)Cc1cccc(Nc2ncc(F)c(-c3ccc(F)cc3OCc3ccccc3)n2)c1 [Example 5, 4-[2-(Benzyloxy)-4-fluorophenyl]-5-fluoro-N-{3-[(propan-2-ylsulfonyl)methyl]phenyl}pyrimidin-2-amine]
- IC50 [4]: 14 nM
- IC50 [7]: 20 nM
- IC50 [9]: 1600 nM

Compound: COc1cc(F)ccc1-c1nc(Nc2cccc(CS(=O)(=O)C3CC3)c2)ncc1F [Example 14, N-{3-[(Cyclopropylsulfonyl)methyl]phenyl}-5-fluoro-4-(4-fluoro-2-methoxyphenyl)pyrimidin-2-amine]
- IC50 [4]: 8 nM
- IC50 ([5]; 4 days, crystal violet): 670 nM
- IC50 [7]: 40 nM
- IC50 [9]: 780 nM

Compound: CS(=O)(=O)Cc1cc(F)cc(Nc2ncc(F)c(-c3ccc(F)cc3OCc3ccccc3)n2)c1 [Example 11, 4-[2-(Benzyloxy)-4-fluorophenyl]-5-fluoro-N-{3-fluoro-5-[(methylsulfonyl)methyl]phenyl}pyrimidin-2-amine]
- IC50 ([5]; 4 days, crystal violet): 1000 nM
- IC50 [9]: 1100 nM

Compound: O=S(=O)(Cc1cccc(Nc2ncc(F)c(-c3ccc(F)cc3OCc3ccccc3)n2)c1)C1CCCCC1 [Example 6, 4-[2-(Benzyloxy)-4-fluorophenyl]-N-{3-[(cyclohexylsulfonyl)methyl]phenyl}-5-fluoropyrimidin-2-amine]
- IC50 [4]: 51 nM
- IC50 [7]: 98 nM
- IC50 [9]: ≥ 20000 nM

Compound: COc1cc(F)ccc1-c1nc(Nc2cccc(CS(=O)(=O)C(C)C)c2)ncc1F [Example 7, 5-Fluoro-4-(4-fluoro-2-methoxyphenyl)-N-{3-[(propan-2-ylsulfonyl)methyl]phenyl}pyrimidin-2-amine]
- IC50 ([5]; 4 days, crystal violet): 1100 nM
- IC50 [9]: 510 nM

Compound: COc1cc(F)ccc1-c1nc(Nc2cccc(CS(=O)(=O)Cc3ccccc3)c2)ncc1F [Example 15, N-{3-[(Benzylsulfonyl)methyl]phenyl}-5-fluoro-4-(4-fluoro-2-methoxyphenyl)-pyrimidin-2-amine]
- IC50 [4]: 10 nM
- IC50 ([5]; 4 days, crystal violet): 1800 nM
- IC50 [7]: 83 nM
- IC50 [9]: 1100 nM

Compound: CC(C)(C)S(=O)(=O)Cc1cccc(Nc2ncc(F)c(-c3ccc(F)cc3OCc3ccccc3)n2)c1 [Example 4, 4-[2-(Benzyloxy)-4-fluorophenyl]-N-{3-[(tert-butylsulfonyl)methyl]phenyl}-5-fluoropyrimidin-2-amine]
- IC50 [4]: 29 nM
- IC50 [7]: 80 nM
- IC50 [9]: 3100 nM

Compound: COCCS(=O)(=O)Cc1cccc(Nc2ncc(F)c(-c3ccc(F)cc3OCc3ccccc3)n2)c1 [Example 3, 4-[2-(Benzyloxy)-4-fluorophenyl]-5-fluoro-N-(3-{[(2-methoxyethyl)sulfonyl]methyl}phenyl)pyrimidin-2-amine]
- IC50 ([1]; DU145, 4 days, crystal violet): 1300 nM
- IC50 [2, 11]: 1000 nM
- IC50 ([3]; B16F10, 4 days, crystal violet): 1200 nM
- IC50 [4]: 10 nM
- IC50 ([5]; 4 days, crystal violet): 1200 nM
- IC50 [6, 12]: 1100 nM
- IC50 [7]: 10 nM
- IC50 [8, 13]: 1200 nM
- IC50 [9]: 1200 nM

Compound: CS(=O)(=O)Cc1cccc(Nc2ncc(F)c(-c3ccc(F)cc3OCc3cccnc3)n2)c1 [Example 16, 5-Fluoro-4-[4-fluoro-2-(pyridin-3-ylmethoxy)phenyl]-N-{3-[(methylsulfonyl)methyl]phenyl}pyrimidin-2-amine]
- IC50 ([1]; DU145, 4 days, crystal violet): 300 nM
- IC50 [2, 11]: 350 nM
- IC50 ([3]; B16F10, 4 days, crystal violet): 410 nM
- IC50 [4]: 8 nM
- IC50 ([5]; 4 days, crystal violet): 380 nM
- IC50 [6, 12]: 440 nM
- IC50 [7]: 19 nM
- IC50 [8, 13]: 320 nM
- IC50 [9]: 820 nM

Compound: CS(=O)(=O)Cc1cccc(Nc2ncc(F)c(-c3cccc4c3OCCC4)n2)c1 [Example 9, 4-(3,4-Dihydro-2H-chromen-8-yl)-5-fluoro-N-{3-[(methylsulfonyl)methyl]phenyl}pyrimidin-2-amine]
- IC50 ([1]; DU145, 4 days, crystal violet): 320 nM
- IC50 [2, 11]: 200 nM
- IC50 ([3]; B16F10, 4 days, crystal violet): 340 nM
- IC50 ([5]; 4 days, crystal violet): 360 nM
- IC50 [6, 12]: 270 nM
- IC50 [8, 13]: 340 nM
- IC50 [9]: 300 nM

Compound: COc1cc(F)ccc1-c1nc(Nc2cccc(CS(C)(=O)=O)c2)ncc1F [Example 1, 5-Fluoro-4-(4-fluoro-2-methoxyphenyl)-N-{3 [(methylsulfonyl)methyl]phenyl}pyrimidin-2-amine]
- IC50 ([1]; DU145, 4 days, crystal violet): 290 nM
- IC50 [2, 11]: 170 nM
- IC50 ([3]; B16F10, 4 days, crystal violet): 310 nM
- IC50 ([5]; 4 days, crystal violet): 290 nM
- IC50 [6, 12]: 260 nM
- Papp A→B at 2 h, 2 μM ([10]; apical to basolateral, read-out: Papp A-B (Mari)): 20.6 ×10⁻⁶ cm/s
- Papp B→A at 2 h, 2 μM ([10]; basolateral to apical, read-out: Papp B-A (Mari)): 8.5 ×10⁻⁶ cm/s
- IC50 [8, 13]: 330 nM
- IC50 [9]: 300 nM

Compound: CS(=O)(=O)Cc1cccc(Nc2ncc(F)c(-c3cccc4c3OCCO4)n2)c1 [Example 13, 4-(2,3-Dihydro-1,4-benzodioxin-5-yl)-5-fluoro-N-{3-[(methylsulfonyl)methyl]phenyl}pyrimidin-2-amine]
- IC50 [1]: 310 nM
- IC50 [2]: 190 nM
- IC50 [3]: 510 nM
- IC50 [4]: 6 nM
- IC50 [5]: 210 nM
- IC50 ([6]; Caco-2, 96 h): 220 nM
- IC50 [7]: 5 nM
- IC50 ([8]; NCI-H460, 96 h): 340 nM
- IC50 [9]: 120 nM
